Molecules are shown by their SMILES.

The nature of the series: gradient 5% acetonitrile 3 min, to 50% in 2 min, to 85% in 15 min, held 3 min, 100 µL/min. The note with it: column: Zorbax Extend-C18 2.1 x 50 mm; eluents: water / acetonitrile, 0.1% formic acid. In short, it runs like this:
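A Zorbax Extend-C18 column (2.1 × 50 mm, 1.8 μm) run at 100 μL/min with water and acetonitrile, both containing 0.1% formic acid, separated mixtures of ~100 pure standards. The HPLC was coupled to a quadrupole time-of-flight mass spectrometer operated in positive and negative ionization mode, with dead and dwell volumes of 40 μL and 900 μL. Each retention time was taken from a computationally picked adduct peak that was then manually inspected.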
`CCCN(CC1CCOC1)C(=O)c1ccc(F)cc1Cl` (stereo not given) returned an RP-LC retention time of 773 s.
The same measure for `CC(C)n1nc(CNC(=O)c2ccc(F)c(F)c2)c2ccccc21`: 962 s; for `C[n+]1ccc(Nc2ccc(NC(=O)c3ccc(Nc4cc[n+](C)c5ccc([N+](=O)[O-])cc45)cc3[N+](=O)[O-])cc2)cc1`: 1080 s.
For `CC(C)c1ccc(C(=O)Nc2cc(-c3ccccn3)no2)cc1`, the RP-LC retention time is 960 s.
The molecule `Cc1ccccc1C(=O)Nc1nc(-c2ccc3c(c2)NC(=O)C(C)O3)c(C)s1` (stereo not given) returned an RP-LC retention time of 797 s.
For the molecule `Cc1ccccc1Cn1cc(CCC(=O)NCCN2CCOCC2)c2ccccc21`, the RP-LC retention time worked out at 639 s.
The same measure for `Cc1ccc2nc(-c3ccccc3)c(Nc3ccccc3C)n2c1`: 726 s; for `CCOc1ccc(CNC(=O)CN2CCN(Cc3ccc(F)cc3)C2=O)cc1OC`: 751 s.
The value for `Cn1c(=O)c2cc(C(=O)NCc3cc(F)ccc3F)nn2c2ccccc21` was 869 s.
The same measure for `COc1ccccc1-c1nc(C2CC(=O)N(c3ccc(F)c(Cl)c3)C2)no1` (stereo not given): 1020 s.
As to `O=C(c1cccc(F)c1)N1CCC2(CC1)N=C(c1ccccc1)NO2`, the RP-LC retention time came out at 739 s.
The same measure for `COCCn1cc(CCNC(=O)Nc2cc(Cl)cc(Cl)c2)c2cccnc21`: 893 s; for `O=C(NCc1ccncc1)c1ccc(-c2ccsc2)nc1`: 589 s.
`O=C(NCCc1csc(-c2ccc(F)cc2)n1)Oc1ccccc1` yielded an RP-LC retention time of 944 s.
The same measure for `CNC(=O)c1ccsc1NC(=O)CN1C(=O)c2ccccc2C1=O`: 701 s; for `O=C(NCCn1c(CCc2ccccc2)nc2ccccc21)NCc1ccco1`: 656 s.
The value for `CCCCCn1c(=O)c2ccccc2n(Cc2nc(-c3cccc(C)c3)no2)c1=O` was 1310 s; that for `COc1ccccc1CCC(=O)N(C)C[C@@]12CCC[C@H]1N(C)C(=O)CC2` was 776 s.
The value for `COc1ccc(C(=O)N2CCN(c3cc(-c4cccs4)[nH]n3)CC2)cc1F` was 837 s; that for `CC(C)c1nccn1C1CN(C(=O)C(C)c2ccccc2)C1` (stereo not given) was 612 s.
In turn, `O=C(C1CCN(c2cnc3nccnc3c2)CC1)N1CCC(Cc2ccccc2)CC1` registered an RP-LC retention time of 889 s.
For `CCc1nc(OCC(=O)NCc2ccc(SC)cc2)c2ccccc2n1`, the RP-LC retention time was 814 s.
The same measure for `Cn1cccc1CN(C(=O)C1(c2ccccc2)CCOCC1)C1CC1`: 843 s.
The same measure for `CCOc1cccc(-c2noc(Cn3ccn(-c4ccc(Cl)cc4)c(=O)c3=O)n2)c1`: 895 s; for `Cc1nc2nc(-c3ccc(C(C)(C)C)cc3)nn2c(C)c1CC(=O)N1CCCCC1C` (stereo not given): 1080 s; for `CC(=O)N1c2ccc(S(=O)(=O)N3CCCCCC3)cc2CC1C(=O)NCc1ccccc1Cl` (stereo not given): 950 s.
As to `Nc1ccccc1NC(=O)CCCCCC(=O)Nc1ccccc1`, the RP-LC retention time turned out to be 683 s.
The same measure for `COC(=O)c1c(-c2ccc(Cl)cc2)noc1NC(C)C`: 1090 s.
The value for `Cc1cc(C)cc(Oc2nccn3c(=O)n(CC(=O)Nc4ccccc4Cl)nc23)c1` was 963 s; that for `Cc1nn(-c2ccc(F)cc2)c(C)c1S(=O)(=O)N1CCN(c2ccccn2)CC1` was 683 s.
The same measure for `Cc1cccc(NC(=O)N2CCN(Cc3cn(C)c4ccccc34)CC2)c1`: 681 s.
The molecule `Cc1cc(C)c(NC(=O)Cn2c(N(C)Cc3ccccc3)nc(C)cc2=O)c(C)c1` showed an RP-LC retention time of 860 s.
`c1cn2cnnc2cc1-c1noc(-c2ccc3c(c2)OCO3)n1` showed an RP-LC retention time of 792 s.
Molecule `O=C(c1ccc(Cl)cc1)N1CCc2nc[nH]c2C1` registered an RP-LC retention time of 568 s.
The value for `CCCC(=O)NC1CCN(c2ccc(F)cc2)C1=O` (stereo not given) was 659 s; that for `CCCNC(=O)C1CCCN(c2ccc(SCC(=O)Nc3ccccc3C(=O)OC)nn2)C1` (stereo not given) was 705 s; that for `Cc1cc(C)cc(NC(=O)c2cn(C)nc2S(=O)(=O)N2CCSCC2)c1` was 1010 s.
The value for `Cc1cccc(CNC2=NCCNC23CCN(S(=O)(=O)c2ccc(Cl)cc2)CC3)c1` was 762 s; that for `Cc1cc(N2CCN(C(=O)c3ccc(C#N)cc3)CC2)nc2nnc(C)n12` was 582 s; that for `Cc1ccc2cc(CCC(=O)NCCN3CCOCC3)c(=O)[nH]c2c1` was 594 s.
Molecule `CCCS(=O)(=O)c1nc2ccc(NS(=O)(=O)c3cc(OC)ccc3OC)cc2s1` displayed an RP-LC retention time of 909 s.
The same measure for `CCc1nnc(-c2cc(C)n(CC(=O)Nc3ccc(Cl)cc3F)c2C)o1`: 866 s; for `COc1ccccc1NC(=O)N1CCCC1c1nc(-c2ccccc2C)no1` (stereo not given): 1080 s; for `COc1ccc(NC(=O)Cn2c(C)cc(-c3nnc(-c4ccco4)o3)c2C)cc1F`: 865 s.
The same measure for `O=C(Nc1ccccc1)Nc1c(-c2ccccc2)nc2ccccn12`: 636 s; for `COc1ccccc1NC(=O)Nc1nc(CC(=O)N2CCC(C(N)=O)CC2)cs1`: 640 s.
The same measure for `CCOc1nc2ccccc2nc1N1CCCC(C(=O)Nc2ccccc2)C1` (stereo not given): 1180 s; for `Cc1ccc(N(C)C(=O)c2cc(C)n3nc(-c4ccccn4)cc3n2)cc1`: 763 s.
`O=C(c1c[nH]c2ccccc12)N1CCC(c2nc(-c3ccccc3)no2)C1` (stereo not given): the RP-LC retention time turned out to be 901 s.
The value for `Cc1ccc2nc(NC(=O)CSc3nn4c(=O)c(C)nnc4s3)sc2c1` was 704 s; that for `CCCNC(=O)C1CCN(S(=O)(=O)c2ccc3c(c2)sc(=O)n3CCC)CC1` was 824 s; that for `Cc1oc2c(c1C(=O)Nc1ccccc1Br)C1=NCCN1C=N2` was 628 s.
The value for `Cc1cc(C(=O)N2CCc3nn(C)c(=O)n3CC2)n[nH]1` was 560 s; that for `O=C(NCc1ccc(F)cc1)NC1CCN(C(=O)N2C[C@H]3C[C@H](C2)[C@H]2CCCC(=O)N2C3)CC1` was 658 s; that for `CCOC(=O)Cc1ccc(NC(=O)Nc2cccn3c(C)nnc23)cc1` was 723 s.
The same measure for `CCN(CC)CCCNC(=O)c1noc2c1CCCCC2`: 632 s; for `NCCNc1ccc(NCCN)c2c1C(=O)c1ccncc1C2=O`: 564 s; for `COc1cc(OC)cc(-c2nc(-c3cn(-c4cccc(F)c4)nn3)no2)c1`: 1090 s.
Turning to `CCOC(=O)C1CCCN(Cc2cn3cc(F)ccc3n2)C1` (stereo not given), the RP-LC retention time was found to be 559 s.
The value for `Cc1ccc2c(c1)OCC(=O)N2Cc1nc(-c2ccc3c(c2)OCO3)no1` was 1030 s; that for `Cc1ccc(CN2CCN(C3CCN(C(=O)Nc4ccc(C)cc4)CC3)C(=O)C2=O)cc1` was 768 s.
The value for `O=C1CC(C(F)(F)F)c2c(c(C(=O)O)cn2-c2ccc(F)cc2)N1` (stereo not given) was 727 s; that for `CCOC(=O)Cc1csc(NS(=O)(=O)c2cn(C)nc2C)n1` was 592 s.
The same measure for `Cc1nn(-c2ccccc2)c(C)c1S(=O)(=O)N1CCC(C(=O)N2CCOCC2)CC1`: 740 s; for `COc1cccc(NC(=O)Cn2nc3c(N4CCCCCC4)nccn3c2=O)c1`: 700 s; for `Cc1ccc(-c2nnc(-c3cccc(S(=O)(=O)NCc4cccs4)c3)o2)cc1`: 1030 s.
Regarding `Cc1cc(S(=O)(=O)N(C)CC2CCOC2)ccc1F` (stereo not given), the RP-LC retention time came out at 836 s.
The same measure for `CCCN1CCN(c2ncc3c(n2)CCN(Cc2cccc(Br)c2)C3)CC1`: 565 s; for `COc1ccc(OC)c(NC(=O)C2CC(=O)N(CCc3c[nH]c4ccc(Cl)cc34)C2)c1` (stereo not given): 849 s.
The same measure for `CC(Oc1ccccc1Cl)C(=O)NCCn1nc(-n2cccn2)ccc1=O` (stereo not given): 710 s.
The value for `Cc1cc2nn(CC(=O)N3CCC(C)CC3)c(=O)n2c(-c2ccc(F)cc2)n1` was 816 s.
`CCN1C(=O)c2cccc3c(NC(=O)c4ccc(C(=O)OC)cc4)ccc1c23` gave an RP-LC retention time of 638 s.
The same measure for `COC(=O)C1=CN(c2ccc(C(=O)OC)cc2)c2ccccc2S1(=O)=O`: 747 s.
As for `Cc1cncc(CN2CCC(=C3c4ccc(Cl)cc4CCc4cccnc43)CC2)c1`, the RP-LC retention time came to 659 s.
The same measure for `c1cc(-c2noc(-c3n[nH]c4c3CCCC4)n2)cc(-c2ccn[nH]2)c1`: 836 s.
The same measure for `CCCN1CCN(C(=O)CC(c2ccc(C)cc2)N2Cc3ccccc3C2=O)CC1` (stereo not given): 666 s; for `CC(C)NC(=O)C1CCN(c2nc3ccc(-c4ccccc4F)nc3s2)CC1`: 915 s.
The same measure for `O=C(NCc1ccc(F)cc1)N1CCN(Cc2nc3cc(-c4ccccc4)ccc3o2)CC1`: 850 s.
Regarding `CCCOc1nc2ccccc2nc1N1CCCC(C(=O)N2CCN(c3ccccc3F)CC2)C1` (stereo not given), the RP-LC retention time worked out at 1380 s.
In turn, `O=C(CCN1C(=O)c2cccnc2Sc2ccccc21)NCCc1c[nH]c2ccccc12` yielded an RP-LC retention time of 746 s.

Source of the values: the METLIN SMRT retention time set (Domingo-Almenara et al. 2019).
